According to patent US20010039246A1, “Composition and method for early bloom thinning of fruit trees and controlling cracking of fruits” (priority 2000, published 2001):
Where two headings read alike, the source gives them in different places.

Assays:
‘Gala’ apple trees = assay: Thinning and phytotoxicity of lipid, copper and their mixture (Example 5); type: in vivo; conditions: for Russet / Leaf damage / Thinning: ‘Gala’ apples, aqueous cupric sulfate, sprayed at 5% FB; for Russet: fruit russet at harvest
Method: Emulsion was prepared with glyceride type of lipids as in Example 2 and diluted to 2% active ingredients. Cupric sulfate was added to the diluted emulsion to give mixtures containing 0, 50, 100, and 150 g metallic copper per 100 L, respectively. Aqueous solutions containing 0, 50, 100, and 150 g metallic copper per 100 L were also prepared seperately. Emulsion and copper mixtures or cupric sulfate solutions were sprayed on 12 year-old ‘Gala’ apple trees at 5% FB. Each treatment consisted of 4 trees (replications) in a row (oriented from south to north) and 2 shoots (one from the east and another from the west side of the canopy) were selected from each of the 4 trees for evaluation. Fruit set was measured 2 months after FB and leaf damage were evaluated 1, 2, and 3 weeks after application. Fruit russet was assessed at harvest and return of bloom was evaluated the following season.

peach trees = conditions: cited from earlier work
‘Delicious’ apple = assay: Lipids and surfactants for bloom thinning, fruit set and leaf bud damage (Example 4); type: in vivo; conditions: applied at 5% full bloom
‘Bing’ cherry trees = assay: as above; type: in vivo; conditions: sprayed at 5% full bloom
Excerpt: (§1) […] Each treatment (plot) consisted of 4 trees, which received standard commercial management both before and after oil application.

‘Feng Huang’ peach = assay: as above; type: in vivo; conditions: applied at 5% full bloom
Excerpt: as §1

[1] = system: ‘Feng Huang’ peaches, ‘Delicious’ apples, and ‘Bing’ cherries; assay: Lipids and surfactants for bloom thinning, all cultivars of Example 4; type: in vivo; conditions: for damage to leaf buds: surfactant alone at 0.6% or 1%; for thinning effect: surfactant alone at the application rate (0.2%, 0.6%, 1%), sprayed at 5% full bloom
Excerpt: Fruit trees of ‘Feng Huang’ peaches, ‘Delicious’ apples, and ‘Bing’ cherries all were sprayed at 5% full bloom. Each treatment (plot) consisted of 4 trees, which received standard commercial management both before and after oil application.

Molecule	Fruit set (‘Delicious’ apple; surfactant solution 0.2%) [%]	leaf bud damage (‘Delicious’ apple; surfactant solution 0.2%) [%]	Fruit set (‘Delicious’ apple; surfactant solution 0.6%) [%]	leaf bud damage (‘Delicious’ apple; surfactant solution 0.6%) [%]	Fruit set (‘Delicious’ apple; surfactant solution 1.0%) [%]	leaf bud damage (‘Delicious’ apple; surfactant solution 1.0%) [%]	Fruit set (‘Bing’ cherry trees; surfactant solution 0.2%) [%]	leaf bud damage (‘Bing’ cherry trees; surfactant solution 0.2%) [%]	Fruit set (‘Bing’ cherry trees; surfactant solution 0.6%) [%]	leaf bud damage (‘Bing’ cherry trees; surfactant solution 0.6%) [%]	Fruit set (‘Bing’ cherry trees; surfactant solution 1.0%) [%]	leaf bud damage (‘Bing’ cherry trees; surfactant solution 1.0%) [%]	Fruit set (‘Feng Huang’ peach; surfactant solution 0.2%) [%]	leaf bud damage (‘Feng Huang’ peach; surfactant solution 0.2%) [%]	Fruit set (‘Feng Huang’ peach; surfactant solution 0.6%) [%]	leaf bud damage (‘Feng Huang’ peach; surfactant solution 0.6%) [%]	Fruit set (‘Feng Huang’ peach; surfactant solution 1.0%) [%]	leaf bud damage (‘Feng Huang’ peach; surfactant solution 1.0%) [%]	damage to leaf buds [1]	thinning effect [1]	also measured
O=S(=O)([O-])[O-].[Cu+2] [Cupric sulfate]	–	–	–	–	–	–	–	–	–	–	–	–	–	–	–	–	–	–	–	–	thinning and phytotoxicity (‘Gala’ apple trees; ‘Gala’ apple, 50, 100, 150 g metallic copper per 100 L): both thinning and phytotoxicity in a concentration dependent manner; Russet (‘Gala’ apple trees; 50 g metallic copper/100 L): 0%; Russet (‘Gala’ apple trees; 100 g metallic copper/100 L): 35%; Russet (‘Gala’ apple trees; 150 g metallic copper/100 L): 64%; Leaf damage (‘Gala’ apple trees; 50 g metallic copper/100 L): 0%; Thinning (‘Gala’ apple trees; 50 g metallic copper/100 L): 87%; Leaf damage (‘Gala’ apple trees; 100 g metallic copper/100 L): 9%; Thinning (‘Gala’ apple trees; 100 g metallic copper/100 L): 64%; Leaf damage (‘Gala’ apple trees; 150 g metallic copper/100 L): 24%; Thinning (‘Gala’ apple trees; 150 g metallic copper/100 L): 43%
N,N-bis 2-[omega (hydroxypolyoxyethylene/polyoxypropylene)ethyl alkylamine] [Armothin]	–	–	–	–	–	–	–	–	–	–	–	–	–	–	–	–	–	–	–	–	thinning effect (peach trees; 1%): not effective thinners
TRITON X-100	62	0	64	8	69	15	94	0	83	10	90	18	41	0	42	6	38	20	caused some damage to leaf buds	not effective in thinning	–
TWEEN 60	58	0	65	7	61	13	96	0	92	8	87	17	46	0	42	5	38	18	caused some damage to leaf buds	not effective in thinning	–
alkaryl polyoxyethylene alcohols	–	–	–	–	–	–	–	–	–	–	–	–	–	–	–	–	–	–	–	–	thinning effect (peach trees; 2%): not effective thinners
